Measurements reported in PMC11680164 (Viruses, 2024).
“Also recorded” adds a separate entry of the source.

Tested on: SARS-CoV-2 P.1 lineage (gamma variant)
Set-up: species or system K18-hACE2 mice
Conditions: in vivo

In the case of COC(=O)N[C@H](C(=O)N1CCC[C@H]1c1nc(-c2ccc(-c3ccc(-c4c[nH]c([C@@H]5CCCN5C(=O)[C@@H](NC(=O)OC)C(C)C)n4)cc3)cc2)c[nH]1)C(C)C [daclatasvir], the mouse survival is reported as “increased mouse survival; also recorded: did not significantly affect”, the “LDH levels in bronchoalveolar lavage (BAL) fluid (cell death, lung necrosis)” value (mouse) is reported as “decreased levels” and the “SARS-CoV-2-induced increase in IL-6” value (mouse) is reported as “prevented”. The “SARS-CoV-2-induced increase in KC” value (mouse) was “prevented”, the “SARS-CoV-2-induced increase in TNF-α” value (mouse) was “prevented” and the “cellular infiltration in BAL fluid” value (mouse) was “reduced cellular infiltration”. The “double-stranded RNA (dsRNA) levels in the lungs” value (mouse) was “lower levels”, the “loss of body weight” value (mouse) was “reduced” and the “lung parenchyma affected by alveolar collapse” value (mouse) was ~10%. The “reduction of SARS-CoV-2 RNA levels in the lungs” value (mouse) was “up to 3 log10”, the “reduction of SARS-CoV-2 titers in the lungs” value (mouse) was “up to 3 log10” and the “virus-induced score of clinical severity” value (mouse) was “reduced”.
